{"source": "the kinase profiling compilation of Christmann-Franck et al. (2016)", "assay_in_all_cases": "KINOMEscan competition binding", "details_in_all_cases": "compound 0.5 µM", "key": {"[1]": {"target": "SYK (human) (UniProt P43405)"}, "[2]": {"test_system": "ABL1 (human), P00519 [M351T]"}, "[3]": {"target": "RIOK3 (human) (UniProt O14730)", "sequence (O14730 whole entry, looked up)": "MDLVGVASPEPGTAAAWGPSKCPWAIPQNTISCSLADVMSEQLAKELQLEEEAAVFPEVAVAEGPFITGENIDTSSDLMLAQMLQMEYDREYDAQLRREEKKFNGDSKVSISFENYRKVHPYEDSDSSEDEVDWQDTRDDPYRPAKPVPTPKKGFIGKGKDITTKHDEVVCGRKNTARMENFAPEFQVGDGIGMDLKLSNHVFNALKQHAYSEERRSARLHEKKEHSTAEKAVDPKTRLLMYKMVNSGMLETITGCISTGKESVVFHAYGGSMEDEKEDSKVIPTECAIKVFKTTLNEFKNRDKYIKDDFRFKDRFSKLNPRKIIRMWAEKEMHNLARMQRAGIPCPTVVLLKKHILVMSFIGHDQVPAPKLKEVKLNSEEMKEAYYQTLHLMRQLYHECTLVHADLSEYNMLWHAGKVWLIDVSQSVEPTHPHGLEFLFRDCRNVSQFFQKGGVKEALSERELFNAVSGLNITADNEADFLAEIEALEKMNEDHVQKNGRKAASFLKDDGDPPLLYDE"}, "[4]": {"target": "FGR (human) (UniProt P09769)", "sequence (P09769 whole entry, looked up)": "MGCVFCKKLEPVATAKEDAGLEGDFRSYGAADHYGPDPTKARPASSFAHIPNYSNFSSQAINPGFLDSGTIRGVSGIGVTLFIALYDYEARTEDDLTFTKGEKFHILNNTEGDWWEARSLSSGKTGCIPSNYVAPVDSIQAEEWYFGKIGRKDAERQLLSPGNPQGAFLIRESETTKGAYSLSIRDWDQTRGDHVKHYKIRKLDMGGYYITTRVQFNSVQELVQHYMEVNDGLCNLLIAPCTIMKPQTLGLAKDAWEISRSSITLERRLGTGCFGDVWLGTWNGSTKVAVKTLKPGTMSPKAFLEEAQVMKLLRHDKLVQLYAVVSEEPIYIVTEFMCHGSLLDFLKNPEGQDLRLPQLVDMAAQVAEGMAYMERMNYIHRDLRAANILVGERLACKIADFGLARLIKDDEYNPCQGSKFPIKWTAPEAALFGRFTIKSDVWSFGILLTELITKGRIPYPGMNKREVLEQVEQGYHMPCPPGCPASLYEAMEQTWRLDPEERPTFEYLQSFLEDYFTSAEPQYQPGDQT"}, "[5]": {"target": "FLT3 (human) (UniProt P36888)"}, "[6]": {"target": "RPS6KA5 KD2 (human) (UniProt O75582)"}, "[7]": {"target": "STK4 (human) (UniProt Q13043)"}, "[8]": {"target": "CAMK2B (human) (UniProt Q13554)"}, "[9]": {"target": "MAPK15 (human) (UniProt Q8TD08)"}, "[10]": {"target": "SRMS (human) (UniProt Q9H3Y6)"}, "[11]": {"target": "PIP5K1C (human) (UniProt O60331)"}, "[12]": {"target": "PRKD2 (human) (UniProt Q9BZL6)", "sequence (Q9BZL6 whole entry, looked up)": "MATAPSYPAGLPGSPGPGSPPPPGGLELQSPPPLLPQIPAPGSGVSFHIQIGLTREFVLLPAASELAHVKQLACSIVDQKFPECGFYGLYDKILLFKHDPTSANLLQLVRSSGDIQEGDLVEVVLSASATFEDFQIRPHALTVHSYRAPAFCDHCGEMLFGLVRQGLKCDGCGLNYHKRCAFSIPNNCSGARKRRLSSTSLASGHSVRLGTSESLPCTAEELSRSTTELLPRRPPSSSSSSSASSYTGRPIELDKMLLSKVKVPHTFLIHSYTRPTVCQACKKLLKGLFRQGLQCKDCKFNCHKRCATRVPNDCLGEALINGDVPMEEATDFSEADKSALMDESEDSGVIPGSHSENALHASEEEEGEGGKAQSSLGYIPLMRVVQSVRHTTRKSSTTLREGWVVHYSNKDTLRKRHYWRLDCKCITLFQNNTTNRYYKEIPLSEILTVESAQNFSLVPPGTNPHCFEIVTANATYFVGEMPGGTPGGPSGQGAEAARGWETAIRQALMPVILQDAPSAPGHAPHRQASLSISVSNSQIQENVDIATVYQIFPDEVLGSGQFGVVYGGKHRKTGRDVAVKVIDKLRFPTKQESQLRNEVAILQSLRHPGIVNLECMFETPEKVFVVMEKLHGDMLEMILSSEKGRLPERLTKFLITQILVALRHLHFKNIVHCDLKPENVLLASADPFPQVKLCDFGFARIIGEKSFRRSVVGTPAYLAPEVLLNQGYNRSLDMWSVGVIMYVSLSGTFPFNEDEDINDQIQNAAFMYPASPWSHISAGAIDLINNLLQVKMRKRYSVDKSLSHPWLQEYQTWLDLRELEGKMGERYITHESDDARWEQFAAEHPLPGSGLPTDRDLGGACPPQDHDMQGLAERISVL"}, "[13]": {"test_system": "FLT3 (human), P36888 [ITD]"}, "[14]": {"target": "EIF2AK2 (human) (UniProt P19525)"}, "[15]": {"target": "HCK (human) (UniProt P08631)"}, "[16]": {"target": "MYLK4 (human) (UniProt Q86YV6)"}, "[17]": {"target": "ERBB2 (human) (UniProt P04626)", "sequence (P04626 whole entry, looked up)": "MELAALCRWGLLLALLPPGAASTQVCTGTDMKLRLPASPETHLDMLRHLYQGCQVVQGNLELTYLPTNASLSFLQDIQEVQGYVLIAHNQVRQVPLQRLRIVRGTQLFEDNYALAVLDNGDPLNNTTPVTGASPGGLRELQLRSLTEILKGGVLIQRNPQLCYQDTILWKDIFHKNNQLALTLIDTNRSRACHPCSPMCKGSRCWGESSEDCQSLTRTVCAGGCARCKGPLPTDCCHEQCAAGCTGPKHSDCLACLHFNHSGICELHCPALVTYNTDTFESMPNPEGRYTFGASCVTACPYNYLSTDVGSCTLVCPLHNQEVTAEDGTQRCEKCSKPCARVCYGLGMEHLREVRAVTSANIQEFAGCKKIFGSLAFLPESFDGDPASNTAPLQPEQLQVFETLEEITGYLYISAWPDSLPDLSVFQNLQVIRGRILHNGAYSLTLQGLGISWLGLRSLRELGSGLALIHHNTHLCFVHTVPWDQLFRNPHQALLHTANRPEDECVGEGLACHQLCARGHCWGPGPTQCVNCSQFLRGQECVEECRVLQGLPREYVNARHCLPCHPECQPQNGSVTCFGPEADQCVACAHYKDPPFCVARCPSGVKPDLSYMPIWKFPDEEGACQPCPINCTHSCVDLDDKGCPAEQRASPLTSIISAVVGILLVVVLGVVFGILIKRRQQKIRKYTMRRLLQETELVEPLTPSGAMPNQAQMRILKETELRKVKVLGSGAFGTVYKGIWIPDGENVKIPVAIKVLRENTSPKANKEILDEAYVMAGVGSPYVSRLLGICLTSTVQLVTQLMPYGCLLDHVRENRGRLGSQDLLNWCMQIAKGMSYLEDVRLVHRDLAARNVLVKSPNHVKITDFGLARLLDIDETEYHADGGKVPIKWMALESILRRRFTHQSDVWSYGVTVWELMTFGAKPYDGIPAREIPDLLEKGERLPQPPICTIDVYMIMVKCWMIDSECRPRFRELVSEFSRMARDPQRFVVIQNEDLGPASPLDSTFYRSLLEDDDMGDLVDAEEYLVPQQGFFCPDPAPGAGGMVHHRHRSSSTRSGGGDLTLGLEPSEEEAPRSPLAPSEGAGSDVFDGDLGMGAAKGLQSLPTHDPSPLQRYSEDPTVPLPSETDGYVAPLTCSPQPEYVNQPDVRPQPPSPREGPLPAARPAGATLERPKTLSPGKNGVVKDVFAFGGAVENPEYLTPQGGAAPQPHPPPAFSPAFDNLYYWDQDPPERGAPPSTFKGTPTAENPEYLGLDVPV"}, "[18]": {"target": "RPS6KA1 KD2 (human) (UniProt Q15418)"}, "[19]": {"target": "STK35 (human) (UniProt Q8TDR2)"}, "[20]": {"target": "NTRK3 (human) (UniProt Q16288)"}, "[21]": {"target": "BRSK1 (human) (UniProt Q8TDC3)"}, "[22]": {"target": "MAP3K6 (human) (UniProt O95382)"}, "[23]": {"target": "RET (human) (UniProt P07949)"}, "[24]": {"target": "MAP2K2 (human) (UniProt P36507)"}, "[25]": {"target": "ULK1 (human) (UniProt O75385)", "sequence (O75385 whole entry, looked up)": "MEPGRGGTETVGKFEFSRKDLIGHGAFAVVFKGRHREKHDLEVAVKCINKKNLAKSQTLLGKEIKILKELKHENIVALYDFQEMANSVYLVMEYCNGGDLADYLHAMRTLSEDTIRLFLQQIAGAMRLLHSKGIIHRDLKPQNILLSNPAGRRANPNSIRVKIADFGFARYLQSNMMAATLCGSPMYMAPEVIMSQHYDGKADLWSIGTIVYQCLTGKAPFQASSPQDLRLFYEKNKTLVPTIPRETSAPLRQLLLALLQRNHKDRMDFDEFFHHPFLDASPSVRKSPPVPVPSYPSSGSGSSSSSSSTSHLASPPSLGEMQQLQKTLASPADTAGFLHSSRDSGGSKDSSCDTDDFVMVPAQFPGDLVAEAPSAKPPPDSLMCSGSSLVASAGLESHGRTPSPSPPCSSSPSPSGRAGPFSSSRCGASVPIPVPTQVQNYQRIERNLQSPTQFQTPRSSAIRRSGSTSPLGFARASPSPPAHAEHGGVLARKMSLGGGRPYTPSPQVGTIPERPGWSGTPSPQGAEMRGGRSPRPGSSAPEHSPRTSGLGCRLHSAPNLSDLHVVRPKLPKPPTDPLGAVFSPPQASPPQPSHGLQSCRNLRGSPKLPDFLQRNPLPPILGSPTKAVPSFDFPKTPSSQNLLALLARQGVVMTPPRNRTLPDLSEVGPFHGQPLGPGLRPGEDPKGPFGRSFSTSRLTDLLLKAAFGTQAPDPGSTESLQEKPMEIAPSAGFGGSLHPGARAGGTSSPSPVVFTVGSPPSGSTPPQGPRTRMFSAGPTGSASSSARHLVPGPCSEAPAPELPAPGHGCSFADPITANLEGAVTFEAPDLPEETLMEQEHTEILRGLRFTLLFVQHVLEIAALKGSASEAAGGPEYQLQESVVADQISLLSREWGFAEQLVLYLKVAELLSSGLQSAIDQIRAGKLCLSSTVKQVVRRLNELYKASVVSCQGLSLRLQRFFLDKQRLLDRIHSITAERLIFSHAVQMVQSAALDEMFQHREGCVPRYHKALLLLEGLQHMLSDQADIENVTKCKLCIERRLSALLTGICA"}, "[26]": {"target": "DYRK2 (human) (UniProt Q92630)"}, "[27]": {"target": "ERBB3 (human) (UniProt P21860)"}, "[28]": {"target": "ACVRL1 (human) (UniProt P37023)"}, "[29]": {"target": "PIP4K2C (human) (UniProt Q8TBX8)"}, "[30]": {"target": "AURKC (human) (UniProt Q9UQB9)", "sequence (Q9UQB9 whole entry, looked up)": "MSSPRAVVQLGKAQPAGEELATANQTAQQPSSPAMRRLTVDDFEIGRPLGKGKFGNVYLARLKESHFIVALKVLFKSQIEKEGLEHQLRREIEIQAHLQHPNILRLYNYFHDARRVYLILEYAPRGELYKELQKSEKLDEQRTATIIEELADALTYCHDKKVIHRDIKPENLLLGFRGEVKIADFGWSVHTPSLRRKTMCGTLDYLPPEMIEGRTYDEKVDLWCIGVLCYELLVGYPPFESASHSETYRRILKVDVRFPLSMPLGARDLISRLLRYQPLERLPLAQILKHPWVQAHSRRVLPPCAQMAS"}, "[31]": {"target": "IKBKB (human) (UniProt O14920)"}, "[32]": {"target": "MAK (human) (UniProt P20794)"}, "[33]": {"target": "PKMYT1 (human) (UniProt Q99640)"}, "[34]": {"target": "SRPK3 (human) (UniProt Q9UPE1)"}, "[35]": {"target": "ALK (human) (UniProt Q9UM73)"}, "[36]": {"target": "LIMK1 (human) (UniProt P53667)"}, "[37]": {"target": "TRPM6 (human) (UniProt Q9BX84)"}, "[38]": {"target": "MKNK1 (human) (UniProt Q9BUB5)", "sequence (Q9BUB5 whole entry, looked up)": "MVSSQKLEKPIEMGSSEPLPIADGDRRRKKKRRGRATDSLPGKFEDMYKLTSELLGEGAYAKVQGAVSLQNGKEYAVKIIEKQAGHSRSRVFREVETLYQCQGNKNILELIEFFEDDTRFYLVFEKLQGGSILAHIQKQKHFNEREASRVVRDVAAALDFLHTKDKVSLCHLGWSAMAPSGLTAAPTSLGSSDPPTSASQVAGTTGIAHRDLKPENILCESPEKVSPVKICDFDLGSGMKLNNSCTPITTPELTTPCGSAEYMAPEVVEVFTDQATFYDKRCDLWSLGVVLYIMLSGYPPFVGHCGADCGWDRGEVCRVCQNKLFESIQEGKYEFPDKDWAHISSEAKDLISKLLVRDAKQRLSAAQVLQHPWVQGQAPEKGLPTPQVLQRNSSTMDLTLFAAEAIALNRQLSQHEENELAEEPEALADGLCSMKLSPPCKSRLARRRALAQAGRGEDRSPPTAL"}, "[39]": {"target": "MERTK (human) (UniProt Q12866)"}, "[40]": {"target": "PAK3 (human) (UniProt O75914)"}, "[41]": {"test_system": "KIT (human), P10721 [V559D/T670I]"}, "[42]": {"target": "MAPK6 (human) (UniProt Q16659)"}}, "data": [{"smiles": "Cn1c2ccccc2c2c3c(c4c5ccccc5n(CCC#N)c4c21)CNC3=O", "values": [{"measurement": "kinase still bound, per cent of control", "setting": "[1]", "result": 2.4, "unit": "%"}, {"measurement": "kinase still bound, per cent of control", "setting": "[2]", "result": 88, "unit": "%"}, {"measurement": "kinase still bound, per cent of control", "setting": "[3]", "result": 1.2, "unit": "%"}, {"measurement": "kinase still bound, per cent of control", "setting": "[4]", "result": 84, "unit": "%"}, {"measurement": "kinase still bound, per cent of control", "setting": "[5]", "result": 1.4, "unit": "%"}, {"measurement": "kinase still bound, per cent of control", "setting": "[6]", "result": 71, "unit": "%"}, {"measurement": "kinase still bound, per cent of control", "setting": "[7]", "result": 5.4, "unit": "%"}, {"measurement": "kinase still bound, per cent of control", "setting": "[8]", "result": 63, "unit": "%"}, {"measurement": "kinase still bound, per cent of control", "setting": "[9]", "result": 0.45, "unit": "%"}, {"measurement": "kinase still bound, per cent of control", "setting": "[10]", "result": 100, "unit": "%"}, {"measurement": "kinase still bound, per cent of control", "setting": "[11]", "result": 100, "unit": "%"}, {"measurement": "kinase still bound, per cent of control", "setting": "[12]", "result": 4.8, "unit": "%"}, {"measurement": "kinase still bound, per cent of control", "setting": "[13]", "result": 0.2, "unit": "%"}, {"measurement": "kinase still bound, per cent of control", "setting": "[14]", "result": 89, "unit": "%"}, {"measurement": "kinase still bound, per cent of control", "setting": "[15]", "result": 100, "unit": "%"}, {"measurement": "kinase still bound, per cent of control", "setting": "[16]", "result": 17, "unit": "%"}, {"measurement": "kinase still bound, per cent of control", "setting": "[17]", "result": 87, "unit": "%"}, {"measurement": "kinase still bound, per cent of control", "setting": "[18]", "result": 88, "unit": "%"}, {"measurement": "kinase still bound, per cent of control", "setting": "[19]", "result": 73, "unit": "%"}, {"measurement": "kinase still bound, per cent of control", "setting": "[20]", "result": 0.15, "unit": "%"}, {"measurement": "kinase still bound, per cent of control", "setting": "[21]", "result": 51, "unit": "%"}, {"measurement": "kinase still bound, per cent of control", "setting": "[22]", "result": 62, "unit": "%"}, {"measurement": "kinase still bound, per cent of control", "setting": "[23]", "result": 0.6, "unit": "%"}, {"measurement": "kinase still bound, per cent of control", "setting": "[24]", "result": 61, "unit": "%"}, {"measurement": "kinase still bound, per cent of control", "setting": "[25]", "result": 92, "unit": "%"}, {"measurement": "kinase still bound, per cent of control", "setting": "[26]", "result": 37, "unit": "%"}, {"measurement": "kinase still bound, per cent of control", "setting": "[27]", "result": 94, "unit": "%"}, {"measurement": "kinase still bound, per cent of control", "setting": "[28]", "result": 100, "unit": "%"}, {"measurement": "kinase still bound, per cent of control", "setting": "[29]", "result": 75, "unit": "%"}, {"measurement": "kinase still bound, per cent of control", "setting": "[30]", "result": 8, "unit": "%"}, {"measurement": "kinase still bound, per cent of control", "setting": "[31]", "result": 50, "unit": "%"}, {"measurement": "kinase still bound, per cent of control", "setting": "[32]", "result": 100, "unit": "%"}, {"measurement": "kinase still bound, per cent of control", "setting": "[33]", "result": 100, "unit": "%"}, {"measurement": "kinase still bound, per cent of control", "setting": "[34]", "result": 3.8, "unit": "%"}, {"measurement": "kinase still bound, per cent of control", "setting": "[35]", "result": 2.1, "unit": "%"}, {"measurement": "kinase still bound, per cent of control", "setting": "[36]", "result": 96, "unit": "%"}, {"measurement": "kinase still bound, per cent of control", "setting": "[37]", "result": 81, "unit": "%"}, {"measurement": "kinase still bound, per cent of control", "setting": "[38]", "result": 86, "unit": "%"}, {"measurement": "kinase still bound, per cent of control", "setting": "[39]", "result": 89, "unit": "%"}, {"measurement": "kinase still bound, per cent of control", "setting": "[40]", "result": 70, "unit": "%"}, {"measurement": "kinase still bound, per cent of control", "setting": "[41]", "result": 57, "unit": "%"}, {"measurement": "kinase still bound, per cent of control", "setting": "[42]", "result": 74, "unit": "%"}]}]}
